This assay has as its target Protein farnesyltransferase (Rattus norvegicus, UniProt Q02293+Q04631). Briefly: Tested for inhibitory activity against rat brain p21ras Ras Farnesyltransferase (FTase).

Each structure is given as a SMILES string.

For the compound `CSCC[C@@H](NC(=O)CN1C(=O)[C@H](N(C)C(=O)[C@@H](N)CS)N=C(c2ccccc2)c2ccccc21)C(=O)O`, the midpoint of inhibition, the IC50, lay at 80 nM.

In the case of `CSCC[C@H](NC(=O)CN1C(=O)[C@H](N(C)C(=O)[C@@H](N)CS)N=C(c2ccccc2)c2ccccc21)C(=O)O` (stereo in doubt; form 1), half-maximal inhibition (IC50) required 370 nM.

In the case of `CSCC[C@H](NC(=O)CN1C(=O)[C@H](N(C)C(=O)[C@@H](N)CS)N=C(c2ccccc2)c2ccccc21)C(=O)O` (stereo in doubt; form 2), it took 0.85 nM to reach half-maximal inhibition (IC50).

On to `CSCC[C@H](NC(=O)CN1C(=O)[C@H](N(C)C(=O)[C@@H](N)CS)N=C(c2ccccc2)c2ccccc21)C(=O)O` (stereo in doubt; form 3), for which it took 2.1 nM to reach half-maximal inhibition (IC50).

For the origin of these results see ChEMBL document CHEMBL1128170, “Stereochemistry of the benzodiazepine based Ras farnesyltransferase inhibitors” (Bioorg Med Chem Lett, 1995).
